Data as given in patent US8518945B2, “Pyrrolopyrazine kinase inhibitors” (Hoffmann-La Roche Inc., priority 2010, dated 2013).
pIC50: −log10 of the molar value.

Legend:
[1] = target: T1, h-jak3(810-1124) (JAK3: Recombinant human kinase domain) (Homo sapiens, UniProt P52333); experiment: Determination of IC50 of Janus Kinase (JAK) inhibition: JAK3 radioactive end-point 33P-ATP kinase assay; assay type: biochemical; details: no additive; ATP 1.5 uM, peptide 50 uM, 20 minutes, room temperature; read-out: Ic50 h-jak3(810-1124)-sf9-c: no additive
T1 construct: jak3(810- 1124)-sf9-c; made in house; host or cells: Sf9
T1 sequence (P52333 810-1124): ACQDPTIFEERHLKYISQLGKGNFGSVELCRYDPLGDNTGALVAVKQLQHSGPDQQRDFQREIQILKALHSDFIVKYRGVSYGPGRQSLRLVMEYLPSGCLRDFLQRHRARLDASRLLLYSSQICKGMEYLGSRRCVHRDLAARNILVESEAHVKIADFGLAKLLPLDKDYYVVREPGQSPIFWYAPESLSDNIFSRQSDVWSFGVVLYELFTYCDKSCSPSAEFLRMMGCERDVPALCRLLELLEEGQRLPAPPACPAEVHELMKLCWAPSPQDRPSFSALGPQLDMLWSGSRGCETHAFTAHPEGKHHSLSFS
Text: Determination of IC50 of Janus Kinase (JAK) Inhibition:
Enzymes and peptide substrate used are described below: • JAK1: Recombinant human kinase domain from Invitrogen (Cat # PV4774) • JAK3: Recombinant human kinase domain from Millipore (Cat # 14-629) or prepared. • JAK2: Recombinant human kinase domain from Millipore (Cat # 14-640) • Substrate: N-terminally biotinylated 14-mer peptide derived from activation loop of JAK1 with sequence of the peptide substrate: Biotin-[sequence]
Assay conditions— used are described below: • Assay Buffer: JAK Kinase Buffer: 50 mM Hepes [pH 7.2], 10 mM MgCl2, 1 mM DTT, 1 mg/ml BSA. The assay was carried out in this buffer. • Assay Format The kinase activity of all three JAK kinases was measured using a radioactive, end-point assay and with trace amounts of ^33P-ATP. The assays were carried out in 96-well polypropylene plates. Experimental Method:
All concentrations were final in the reaction mixture and all incubations were carried at room temperature. […] Final concentration of DMSO in the reaction was 10%. • 2) Compounds were preincubated with enzyme (0.5 nM JAK3 (commercially available), 0.2 nM JAK3 (prepared), 1 nM JAK2, 5 nM JAK1) for 10 minutes. • 3) Reactions were initiated by the addition of a cocktail of the two substrates (ATP and peptide premixed in the JAK Kinase Buffer). In the JAK2/JAK3 assays, ATP and the peptide were used at concentrations of 1.5 uM and 50 uM, respectively. JAK1 assay was carried out at an ATP concentration of 10 uM and a peptide concentration of 50 uM. • 4) The duration of the assay for JAK2 and JAK3 is 20 minutes. JAK1 assay was carried out for 40 minutes. With all three enzymes, reactions were terminated by the addition of 0.5M EDTA to a final concentration of 100 mM. • 5) 25 ul of terminated reactions were transferred to 150 ul of a 7.5% (v/v) slurry of streptavidin-coated sepharose beads in MgCl2- and CaCl2-free 1× Phosphate Buffered Saline containing 50 mM of EDTA in 96-well, 1.2 um MultiScreen-BV filter plates. • 6) After a 30-minute incubation, the beads were washed under vacuum with the following buffers: • a. 3 to 4 washes with 200 ul of 2M NaCl. • b. 3 to 4 washes with 200 ul of 2M NaCl plus 1% (v/v) phosphoric acid. • c. 1 wash with water. • 7) Washed plates were dried in a 60° C. oven for between 1 to 2 hours. • 8) 70 ul of Microscint 20 scintillation fluid was added to each well of filter plates and after at least 30 minutes of incubation, radioactive counts were measured in a Perkinelmer microplate scintillation counter.

SMILES | melting point [°C] | pIC50 [1]
CC[C@@H](NC(=O)c1c[nH]c2ncc(C3CC3)nc12)C(=O)N1CCCC1 [Example 23, 2-Cyclopropyl-5H-pyrrolo[2,3-b]pyrazine-7-carboxylic acid [(R)-1-(pyrrolidine-1-carbonyl)-propyl]-amide] | 240.9 to 242.5 | –
CC(C)[C@@H](NC(=O)c1c[nH]c2ncc(C3CC3)nc12)C(=O)N1CCCC1 [Example 24, 2-Cyclopropyl-5H-pyrrolo[2,3-b]pyrazine-7-carboxylic acid [(R)-2-methyl-1-(pyrrolidine-1-carbonyl)-propyl]-amide] | 171 to 172.1 | –
O=C(N[C@@H](C(=O)N1CCCC1)C1CC1)c1c[nH]c2ncc(C3CC3)nc12 [Example 25, 2-Cyclopropyl-5H-pyrrolo[2,3-b]pyrazine-7-carboxylic acid ((R)-1-cyclopropyl-2-oxo-2-pyrrolidin-1-yl-ethyl)-amide] | 254 to 256 | –
CC(C)[C@@H](NC(=O)c1c[nH]c2ncc(C3CC3)nc12)C(=O)N1CCCCC1 [Example 26, 2-Cyclopropyl-5H-pyrrolo[2,3-b]pyrazine-7-carboxylic acid [(R)-2-methyl-1-(piperidine-1-carbonyl)-propyl]-amide] | 183 to 185 | –
CC(C)[C@@H](NC(=O)c1c[nH]c2ncc(C3CC3)nc12)C(=O)N1CCOCC1 [Example 27, 2-Cyclopropyl-5H-pyrrolo[2,3-b]pyrazine-7-carboxylic acid [(R)-2-methyl-1-(morpholine-4-carbonyl)-propyl]-amide] | 154 to 156 | –
Cc1nc(-c2cnc3[nH]cc(C(=O)N[C@@H](C(=O)N4CC(C#N)C4)C(C)(C)C)c3n2)cn1-c1cc(F)cc(F)c1 [Example 136, 2-[1-(3,5-Difluoro-phenyl)-2-methyl-1H-imidazol-4-yl]-5H-pyrrolo[2,3-b]pyrazine-7-carboxylic acid [(R)-1-(3-cyano-azetidine-1-carbonyl)-2,2-dimethyl-propyl]-amide] | 187 to 190 | –
Cc1nc(-c2cnc3[nH]cc(C(=O)N[C@@H](C(=O)N4CC(C#N)C4)C(C)(C)C)c3n2)cn1-c1cccc(F)c1 [Example 137, 2-[1-(3-Fluorophenyl)-2-methyl-1H-imidazol-4-yl]-5H-pyrrolo[2,3-b]pyrazine-7-carboxylic acid [(R)-1-(3-cyano-azetidine-1-carbonyl)-2,2-dimethyl-propyl]-amide] | 171 to 176 | –
N#CC1CN(C(=O)[C@H](NC(=O)c2c[nH]c3ncc(-c4ccc(C(F)(F)F)cc4)nc23)C2CC2)C1 [Example 142, 2-(4-Trifluoromethyl-phenyl)-5H-pyrrolo[2,3-b]pyrazine-7-carboxylic acid [(R)-2-(3-cyano-azetidin-1-yl)-1-cyclopropyl-2-oxo-ethyl]-amide] | 207 to 209 | –
CC(=O)N1CCN(c2ccc(-c3cnc4[nH]cc(C(=O)N[C@@H](C(=O)N5CC(C#N)C5)C5CC5)c4n3)cc2)CC1 [Example 143, 2-[4-(4-Acetyl-piperazin-1-yl)-phenyl]-5H-pyrrolo[2,3-b]pyrazine-7-carboxylic acid [(R)-2-(3-cyano-azetidin-1-yl)-1-cyclopropyl-2-oxo-ethyl]-amide] | 185 to 188 | –
CN1CCN(c2ccc(-c3cnc4[nH]cc(C(=O)N[C@@H](C(=O)N5CC(C#N)C5)C5CC5)c4n3)cc2)CC1 [Example 144, 2-[4-(4-Methyl-piperazin-1-yl)-phenyl]-5H-pyrrolo[2,3-b]pyrazine-7-carboxylic acid [(R)-2-(3-cyano-azetidin-1-yl)-1-cyclopropyl-2-oxo-ethyl]-amide] | 178 to 185 | –
N#CC1CN(C(=O)[C@H](NC(=O)c2c[nH]c3ncc(-c4ccc(N5CCOCC5)cc4)nc23)C2CC2)C1 [Example 145, 2-(4-Morpholin-4-yl-phenyl)-5H-pyrrolo[2,3-b]pyrazine-7-carboxylic acid [(R)-2-(3-cyano-azetidin-1-yl)-1-cyclopropyl-2-oxo-ethyl]-amide] | 186 to 192 | –
CN(C)c1ccc(-c2cnc3[nH]cc(C(=O)N[C@@H](C(=O)N4CC(C#N)C4)C4CC4)c3n2)cc1 [Example 146, 2-(4-Dimethylamino-phenyl)-5H-pyrrolo[2,3-b]pyrazine-7-carboxylic acid [(R)-2-(3-cyano-azetidin-1-yl)-1-cyclopropyl-2-oxo-ethyl]-amide] | 175 to 180 | –
N#CC1CN(C(=O)[C@H](NC(=O)c2c[nH]c3ncc(-c4ccccc4)nc23)C2CC2)C1 [Example 147, 2-Phenyl-5H-pyrrolo[2,3-b]pyrazine-7-carboxylic acid [(R)-2-(3-cyano-azetidin-1-yl)-1-cyclopropyl-2-oxo-ethyl]-amide] | 200 to 202 | –
CCn1cc(-c2cnc3[nH]cc(C(=O)N[C@@H](C(=O)N4CCC(C)(C#N)C4)C(C)(C)C)c3n2)cn1 (stereo partly drawn) [Example I-28, 2-(1-Ethyl-1H-pyrazol-4-yl)-5H-pyrrolo[2,3-b]pyrazine-7-carboxylic acid [(R)-1-(3-cyano-3-methyl-pyrrolidine-1-carbonyl)-2,2-dimethyl-propyl]-amide] | 228 to 230 | 9.29
CCn1cc(-c2cnc3[nH]cc(C(=O)N[C@@H](C(=O)N4CCCC4)C4(C)CC4)c3n2)cn1 [Example I-34, 2-(1-Ethyl-1H-pyrazol-4-yl)-5H-pyrrolo[2,3-b]pyrazine-7-carboxylic acid [(R)-1-(1-methyl-cyclopropyl)-2-oxo-2-pyrrolidin-1-yl-ethyl]-amide] | 218 to 220 | 9.06
Cc1nc(-c2cnc3[nH]cc(C(=O)N[C@@H](C(=O)N4CC(C#N)C4)C4CC4)c3n2)cn1CC(F)(F)F [Example I-165, 2-[2-Methyl-1-(2,2,2-trifluoro-ethyl)-1H-imidazol-4-yl]-5H-pyrrolo[2,3-b]pyrazine-7-carboxylic acid [(R)-2-(3-cyano-azetidin-1-yl)-1-cyclopropyl-2-oxo-ethyl]-amide] | 255 to 256 | 9.17
